Earlier results as cited in publication PMC4027949 (ACS Chemical Biology, 2014).

Tests used:
PDGFRa = PDGFRa (Homo sapiens, UniProt P16234); settings: read-out: IC50 PDGFRa; Ibrutinib comparison values
P38 = settings: read-out: IC50 P38; Ibrutinib comparison values
PI3K = settings: read-out: IC50 PI3K; Ibrutinib comparison values

Sequence of PDGFRa (P16234 24-1089, species assumed): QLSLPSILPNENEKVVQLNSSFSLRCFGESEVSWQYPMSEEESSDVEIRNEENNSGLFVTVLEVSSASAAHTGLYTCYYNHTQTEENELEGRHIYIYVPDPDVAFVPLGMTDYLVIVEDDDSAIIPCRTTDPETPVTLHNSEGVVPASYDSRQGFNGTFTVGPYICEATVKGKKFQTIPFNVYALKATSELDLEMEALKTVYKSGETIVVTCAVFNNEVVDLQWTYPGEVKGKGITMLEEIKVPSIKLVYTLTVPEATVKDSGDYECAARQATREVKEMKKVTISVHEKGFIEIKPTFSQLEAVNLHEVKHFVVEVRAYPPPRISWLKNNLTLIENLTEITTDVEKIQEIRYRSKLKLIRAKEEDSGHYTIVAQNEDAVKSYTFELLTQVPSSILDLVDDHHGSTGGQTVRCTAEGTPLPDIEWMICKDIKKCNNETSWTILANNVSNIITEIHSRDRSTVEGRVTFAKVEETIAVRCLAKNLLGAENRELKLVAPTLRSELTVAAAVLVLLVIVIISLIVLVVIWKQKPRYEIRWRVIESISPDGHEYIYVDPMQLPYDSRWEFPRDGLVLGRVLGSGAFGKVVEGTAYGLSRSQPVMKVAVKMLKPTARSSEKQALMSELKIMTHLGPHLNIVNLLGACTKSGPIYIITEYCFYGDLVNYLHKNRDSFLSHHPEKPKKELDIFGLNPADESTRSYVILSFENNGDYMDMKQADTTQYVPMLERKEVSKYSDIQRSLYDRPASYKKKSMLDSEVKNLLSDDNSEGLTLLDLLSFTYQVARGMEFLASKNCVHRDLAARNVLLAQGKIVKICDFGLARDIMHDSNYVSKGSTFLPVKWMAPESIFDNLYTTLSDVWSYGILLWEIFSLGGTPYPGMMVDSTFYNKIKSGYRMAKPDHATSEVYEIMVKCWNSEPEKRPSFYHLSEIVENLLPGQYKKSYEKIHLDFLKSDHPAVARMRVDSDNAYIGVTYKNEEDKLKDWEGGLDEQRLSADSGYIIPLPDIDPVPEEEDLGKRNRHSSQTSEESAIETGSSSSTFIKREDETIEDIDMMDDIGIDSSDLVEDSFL

IC50 (PDGFRa): 0.718 µM | IC50 (P38): > 10 µM | IC50 (PI3K): > 10 µM
Compound: C=CC(=O)N1CCC[C@@H](n2nc(-c3ccc(Oc4ccccc4)cc3)c3c(N)ncnc32)C1 [Ibrutinib]
